Experimental data from US20050090522A1 (priority 2001, published 2005).

System: HIV-1
Experiment: HIV-1 single-round infectious luciferase reporter virus (pseudotype) assay in HeLa CD4 CCR5 cells
Format: cell-based
Details: Human immunodeficiency virus 1, HeLa-CD4/CCR5, read-out: Average % inhibition at 10 μM
Experimental: • Virus production—Human embryonic Kidney cell line, 293, propagated in Dulbecco's Modified Eagle Medium (Life Technologies, Gaithersburg, Md.) containing 10% fetal Bovine serum (FBS, Sigma, St. Louis, Mo.). • Virus infection—Human epithelial cell line, HeLa, expressing the HIV-1 receptors CD4 and CCR^5 was propagated in Dulbecco's Modified Eagle Medium (Life Technologies, Gaithersburg, Md.) containing 10% fetal Bovine serum (FBS, Sigma, St. Louis, Mo.) and supplemented with 0.2 mg/mL Geneticin (Life Technologies, Gaithersburg, Md.) and 0.4 mg/mL Zeocin (Invitrogen, Carlsbad, Calif.). […] Transfections were performed using lipofectAMINE PLUS reagent as described by the manufacturer (Life Technologies, Gaithersburg, Md.). Experiment • 1. Compound was added to HeLa CD4 CCR5 cells plated in 96 well plates at a cell density of 5×10^4 cells per well in 100 μl Dulbecco's Modified Eagle Medium containing 10% fetal Bovine serum at a concentration of […]. • 2. 100 μl of single-round infectious reporter virus in Dulbecco's Modified Eagle Medium was then added to the plated cells and compound at an approximate multiplicity of infection (MOI) of 0.01, resulting in a final volume of 200 μl per well and a final compound concentration of <10 μM. • 3. Samples were harvested 72 h after infection. • 4. Viral infection was monitored by measuring luciferase expression from viral DNA in the infected cells using a luciferase reporter gene assay kit (Roche Molecular Biochemicals, Indianapolis, Ind.). Infected cell supernatants were removed and 50 μl of Dulbecco's Modified Eagle Medium (without phenol red) and 50 μl of luciferase assay reagent reconstituted as described by the manufacturer (Roche Molecular Biochemicals, Indianapolis, Ind.) was added per well. Luciferase activity was then quantified by measuring luminescence using a Wallac microbeta scintillation counter. • 5. […] An EC50 provides a method for comparing the antiviral potency of the compounds of this invention. The effective concentration for fifty percent inhibition (EC50) was calculated with the Microsoft Excel Xlfit curve fitting software. For each compound, curves were generated from percent inhibition calculated at 10 different concentrations by using a four paramenter logistic model (model 205). Table 1 is the key for the data in Tables 2-4. Cytoxicity assays were conducted with the same HeLa using methodology well known in the art.
In Table 5, X2, X4 etc. indicates the point of attachment. […] The data at 10 μM was calculated in the following manner:
For compounds tested at concentrations less than 10 μM, the percent inhibition at 10 μM was determined by extrapolation using the XLfit curve fitting feature of the Microsoft Excel spreadsheet software. Curves were obtained from 10 data points (% inhibition determined at 10 concentrations of compound) by using a four parameter logistic model (XLfit model 205: y=A+((B−A)/(I+((C/x)^D))), where, A=minimum y, B=maximum y, C=logEC50, D=slope factor, and x and y are known data values. Extrapolations were performed with the A and B parameters unlocked. […]

SMILES	inhibition at 10 µM
C[C@@H]1CN(C(=O)c2ccccc2)CCN1C(=O)C(=O)c1c[nH]c2c(-c3ccc(F)cc3)nccc12 [Example 1, 1-benzoyl-3-(R)-methyl-4-[(7-(4-fluorophenyl)-6-azaindol-3-yl)-oxoacetyl]-piperazine]	56%

Same assay, conditions: Human immunodeficiency virus 1, HeLa-CD4/CCR5, read-out: EC50 Group from TABLE 1, HeLa CD4 CCR5 cells, single-round infectious luciferase reporter virus

SMILES	EC50
COc1cnc(-n2ccc(COC(=O)CC(C)(C)C(=O)O)n2)c2[nH]cc(C(=O)C(=O)N3CCN(C(=O)c4ccccc4)[C@H](C)C3)c12 (stereo in doubt) [Example 295, 2,2-Dimethyl-succinic acid 4-(1-{3-[2-(4-benzoyl-3-methyl-piperazin-1-yl)-2-oxo-acetyl]-4-methoxy-1H-pyrrolo[2,3-c]pyridin-7-yl}-1H-pyrazol-3-ylmethyl) ester]	< 1000 nM
C[C@@H]1CN(C(=O)c2ccccc2)CCN1C(=O)C(=O)c1c[nH]c2c(-c3cncc(NC(=O)C4OC4C(=O)O)n3)nccc12 (stereo in doubt) [Example 296, 3-(6-{3-[2-(4-Benzoyl-2-methyl-piperazin-1-yl)-2-oxo-acetyl]-1H-pyrrolo[2,3-c]pyridin-7-yl}-pyrazin-2-ylcarbamoyl)-oxirane-2-carboxylic acid]	< 1000 nM
C[C@@H]1CN(C(=O)c2ccccc2)CCN1C(=O)C(=O)c1c[nH]c2c(-c3cccc(NC(=O)C4OC4C(=O)O)n3)nccc12 (stereo in doubt) [Example 297, 3-(6-{3-[2-(4-Benzoyl-2-methyl-piperazin-1-yl)-2-oxo-acetyl]-1H-pyrrolo[2,3-c]pyridin-7-yl}-pyridin-2-ylcarbamoyl)-oxirane-2-carboxylic acid]	< 1000 nM
C[C@@H]1CN(C(=O)c2ccccc2)CCN1C(=O)C(=O)c1c[nH]c2c(-c3ccc(F)cc3)nccc12 [Example 1, 1-benzoyl-3-(R)-methyl-4-[(7-(4-fluorophenyl)-6-azaindol-3-yl)-oxoacetyl]-piperazine]	< 1000 nM
O=C(C(=O)N1CCN(C(=O)c2ccccc2)CC1)c1c[nH]c2c(-c3ccc(Cl)cc3)nccc12 [Example 2, 1-benzoyl-4-[(7-(4-chlorophenyl)-6-azaindol-3-yl)-oxoacetyl]piperazine]	< 1000 nM
O=C(O)c1ccc(-c2nccc3c(C(=O)C(=O)N4CCN(C(=O)c5ccccc5)CC4)c[nH]c23)cc1 [Example 4, 1-benzoyl-4-[(7-(4-carboxy-phenyl)-6-azaindol-3-yl)-oxoacetyl]piperazine]	< 1000 nM
CC1CN(C(=O)c2ccccc2)CCN1C(=O)C(=O)c1c[nH]c2c(-c3ccc4c(c3)OCO4)nccc12 (stereo not shown) [Example 5, 1-benzoyl-3-methyl-4-[(7-(3,4-methylenedioxyphenyl)-6-azaindol-3-yl)-oxoacetyl]piperazine]	< 1000 nM
C[C@@H]1CN(C(=O)c2ccccc2)CCN1C(=O)C(=O)c1c[nH]c2c(-c3ccco3)nccc12 [Example 6, 1-benzoyl-3-®-methyl-4-[(7-(furan-2-yl)-6-azaindol-3-yl)-oxoacetyl]piperazine]	< 1000 nM
O=C(C(=O)N1CCN(C(=O)c2ccccc2)CC1)c1c[nH]c2c(-c3ccco3)nccc12 [Example 7, 1-benzoyl-4-[(7-(furan-2-yl)-6-azaindol-3-yl)-oxoacetyl] piperazine]	< 1000 nM
O=C(C(=O)N1CCN(C(=O)c2ccccc2)CC1)c1c[nH]c2c(-c3cc4ccccc4o3)nccc12 [Example 8, 1-benzoyl-4-[(7-(benzofuran-2-yl)-6-azaindol-3-yl)-oxoacetyl]piperazine]	< 1000 nM
C[C@@H]1CN(C(=O)c2ccccc2)CCN1C(=O)C(=O)c1c[nH]c2c(-c3cccs3)nccc12 [Example 9, 1-(benzoyl)-3-®-methyl-4-[(7-(thien-2-yl)-6-azaindol-3-yl)-oxoacetyl]piperazine]	< 1000 nM
O=C(C(=O)N1CCN(C(=O)c2ccccc2)CC1)c1c[nH]c2c(-c3ccncc3)nccc12 [Example 10, 1-(benzoyl)-4-[(7-(pyridin-4-yl)-6-azaindol-3-yl)-oxoacetyl]piperazine]	< 1000 nM
O=C(C(=O)N1CCN(C(=O)c2ccccc2)CC1)c1c[nH]c2c(-c3cccc4cccnc34)nccc12 [Example 11, 1-benzoyl-4-[(7-(quinolin-8-yl)-6-azaindol-3-yl)-oxoacetyl]piperazine]	< 1000 nM
COc1cnc(-c2ccncc2)c2[nH]cc(C(=O)C(=O)N3CCN(C(=O)c4ccccc4)CC3)c12 [Example 14, 1-benzoyl-4-[(4-methoxy-7-(pyridin-4-yl)-6-azaindol-3-yl)-oxoacetyl]piperazine]	< 1000 nM
COc1cnc(-c2cnc(C(=O)NC(C)(C)C)cn2)c2[nH]cc(C(=O)C(=O)N3CCN(C(=O)c4ccccc4)CC3)c12 [Example 15, 1-benzoyl-4-[(4-methoxy-7-(2-(1,1-dimethylethylaminocarbonyl)-pyrazin-5-yl)-6-azaindol-3-yl)-oxoacetyl]piperazine]	< 1000 nM
C[C@@H]1CN(C(=O)c2ccccc2)CCN1C(=O)C(=O)c1c[nH]c2c(-c3cncnc3)nccc12 [Example 16, 1-benzoyl-3-(R)-methyl-4-[(7-(pyrimidin-5-yl)-6-azaindol-3-yl)-oxoacetyl]piperazine]	< 1000 nM
O=C(C(=O)N1CCN(C(=O)c2ccccc2)CC1)c1c[nH]c2c(-c3cncnc3)nccc12 [Example 17, 1-benzoyl-4-[(7-(pyrimidin-5-yl)-6-azaindol-3-yl)-oxoacetyl]piperazine]	< 1000 nM
C[C@@H]1CN(C(=O)c2ccccc2)CCN1C(=O)C(=O)c1c[nH]c2c(-c3cccnc3)nccc12 [Example 18, 1-benzoyl-3-(R)-methyl-4-[(7-(pyridin-3-yl)-6-azaindol-3-yl)-oxoacetyl]piperazine]	< 1000 nM
O=C(C(=O)N1CCN(C(=O)c2ccccc2)CC1)c1c[nH]c2c(-c3ccccn3)nccc12 [Example 19, 1-benzoyl-4-[(7-(pyridin-2-yl)-6-azaindol-3-yl)-oxoacetyl]piperazine]	< 1000 nM
C[C@@H]1CN(C(=O)c2ccccc2)CCN1C(=O)C(=O)c1c[nH]c2c(-c3nccs3)nccc12 [Example 20, 1-benzoyl-3-(R)-methyl-4-[(7-(thiazol-2-yl)-6-azaindol-3-yl)oxoacetyl]piperazine]	< 1000 nM
O=C(C(=O)N1CCN(C(=O)c2ccccc2)CC1)c1c[nH]c2c(-c3nccs3)nccc12 [Example 21, 1-benzoyl-4-[(7-(thiazol-2-yl)-6-azaindol-3-yl)-oxoacetyl]piperazine]	< 1000 nM
COc1cnc(-c2ccnnc2)c2[nH]cc(C(=O)C(=O)N3CCN(C(=O)c4ccccc4)CC3)c12 [Example 23, l-benzoyl-4-[(4-methoxy-7-(pyridazin-4-yl)-6-azaindol-3-yl)-oxoacetyl]piperazine]	< 1000 nM
COc1cnc(-c2cnc(N)nc2)c2[nH]cc(C(=O)C(=O)N3CCN(C(=O)c4ccccc4)CC3)c12 [Example 24]	< 1000 nM
COc1cnc(-c2cccnc2)c2[nH]cc(C(=O)C(=O)N3CCN(C(=O)c4ccccc4)CC3)c12 [Example 25, 1-benzoyl-4-[(4-methoxy-7-(pyridin-3-yl)-6-azaindol-3-yl)-oxoacetyl]piperazine]	< 1000 nM
COc1cnc(-c2cnc(N)cn2)c2[nH]cc(C(=O)C(=O)N3CCN(C(=O)c4ccccc4)CC3)c12 [Example 26]	< 1000 nM
COc1cnc(-c2nccn2C)c2[nH]cc(C(=O)C(=O)N3CCN(C(=O)c4ccccc4)CC3)c12 [Example 27, 1-benzoyl-4-[(4-methoxy-7-(1-methyl-imidazol-2-yl)-6-azaindol-3-yl)-oxoacetyl]piperazine]	< 1000 nM
O=C(C(=O)N1CCN(C(=O)c2ccccc2)CC1)c1c[nH]c2c(-c3ccnnc3)ncc(F)c12 [Example 30, 1-benzoyl-4-[(4-fluoro-7-(pyridazin-4-yl)-6-azaindol-3-yl)-oxoacetyl]piperazine]	< 1000 nM
COc1cnc(-c2cnccn2)c2[nH]cc(C(=O)C(=O)N3CCN(C(=O)c4ccccc4)CC3)c12 [Example 32, 1-benzoyl-4-[(4-methoxy-7-(pyrazin-2-yl)-6-azaindol-3-yl)-oxoacetyl]piperazine]	< 1000 nM
C[C@@H]1CN(C(=O)c2ccccc2)CCN1C(=O)C(=O)c1c[nH]c2c(-c3cnccn3)nccc12 [Example 33, 1-benzoyl-3-(R)-methyl-4-[(7-(pyrazin-2-yl)-6-azaindol-3-yl)-oxoacetyl]piperazine]	< 1000 nM
O=C(C(=O)N1CCN(C(=O)c2ccccc2)CC1)c1c[nH]c2c(-c3cnccn3)nccc12 [Example 34, 1-benzoyl-4-[(7-(pyrazin-2-yl)-6-azaindol-3-yl)-oxoacetyl]piperazine]	< 1000 nM
